Data taken from PMC3527451, “A Pilot Randomized, Placebo Controlled, Double Blind Phase I Trial of the Novel SIRT1 Activator SRT2104 in Elderly Volunteers” (PLoS ONE, 2012).

Key:
[1] = tested on: elderly male and female volunteers; experiment: Safety and tolerability, treatment-emergent adverse events in elderly volunteers; assay type: in vivo, human; settings: for serum creatinine of one subject: 0.5 g/day cohort
Experimental: This was a phase I, single-center, double-blind, randomized, placebo-controlled, parallel-arm study to assess the safety, tolerability, pharmacokinetic and initial pharmacodynamic properties of SRT2104 (Sirtris Pharmaceuticals, Cambridge, MA, USA) administered for the first time to male and female elderly volunteers 60 to 80 years of age. Volunteers were enrolled between 01 Oct 2009 and 5 Feb 2010. Doses of 0.5 and 2.0 g or matching placebo were administered once daily for 28 consecutive days. The selection of the doses investigated in this study was based upon safety and pharmacokinetic data obtained from a previous clinical study involving SRT2104 [19]. Suitability of participants was defined on the basis of a medical history, physical examination, vital signs, electrocardiogram and laboratory measurements. Subjects were required to have normal fasting glucose levels (4.4 to 6.0 mmol/L) at screening and a body mass index of at least 18 kg/m^2 and no greater than 30 kg/m^2. […] Subjects were deemed ineligible if they participated in any clinical trial with an investigative medicinal product within the past three months prior to the first dose in the current study, had been exposed to more than three new chemical entities within 12 months of enrollment, or used other concomitant medications and herbal products in the previous 3 months that in the opinion of the investigator could interfere with the study procedures or compromise subject safety. Additional exclusions included: women of childbearing potential and non-sterile men, unless they agreed to use acceptable method of contraception; history of alcoholism or drug abuse (including a positive pre-study drug/alcohol test at screening); use of tobacco or nicotine products; history of complications when donating blood or known relative inaccessibility of veins for venipuncture; donation of blood within three months of enrolment; history of significant drug or other allergies. Participants were asked to maintain their usual level of physical activity for the duration of the study.
At every visit (including at screening and follow-up), blood and urine samples were collected for clinical laboratory assessments (general blood biochemistry, full blood count, coagulation parameters and urinalysis). On the same days, physical examination, vital signs (resting pulse rate, respiration rate, temperature, and blood pressure readings), pre- and post-dose 12-lead ECG and a review of adverse events (AE) and any medications received were also performed. Safety evaluations were based on the incidence, severity and type of AEs and clinically significant changes from baseline in physical examination findings, vital signs or clinical laboratory results.

CYP3A4 = tested on: CYP3A4; parameters: method as in ref 17, 18 (a number printed in a supplementary file, which may have a reference list of its own: not looked up in the article's list); settings: cultured hepatocytes, at the concentrations tested; cited from earlier work
[2] = 28 days continuous administration

## Cc1nc(-c2cccnc2)sc1C(=O)Nc1ccccc1-c1cn2c(CN3CCOCC3)csc2n1 [SRT2104]
[1]; 0.5 and 2.0 g/day for 28 days
  safety and tolerability: generally safe and well tolerated
[1]; 0.5 g/day (n = 8)
  Abdominal distension, number of subjects: 1
  Abdominal distension, percent of subjects: (13%)
  Abdominal pain lower, number of subjects: 1
  Abdominal pain lower, percent of subjects: (13%)
  Any adverse event, percent of subjects: (100%)
  Application site haematoma, number of subjects: 1
  Application site haematoma, percent of subjects: (13%)
  Arthralgia, number of subjects: 1
  Arthralgia, percent of subjects: (13%)
  Back pain, number of subjects: 1
  Back pain, percent of subjects: (13%)
  Blood creatinine increased, number of subjects: 1
  Blood creatinine increased, percent of subjects: (13%)
  Constipation, number of subjects: 0
  Cough, number of subjects: 0
  Decreased Appetite, number of subjects: 1
  Decreased Appetite, percent of subjects: (13%)
  Diarrhoea, number of subjects: 1
  Diarrhoea, percent of subjects: (13%)
  Dizziness, number of subjects: 0
  Dry eye, number of subjects: 0
  Dysphonia, number of subjects: 0
  Epistaxis, number of subjects: 0
  Erythema, number of subjects: 1
  Erythema, percent of subjects: (13%)
  Eye pain, number of subjects: 0
  Fall, number of subjects: 0
  Fatigue, number of subjects: 0
  Headache, number of subjects: 5
  Headache, percent of subjects: (63%)
  Insomnia, number of subjects: 1
  Insomnia, percent of subjects: (13%)
  Joint stiffness, number of subjects: 0
  Lethargy, number of subjects: 1
  Lethargy, percent of subjects: (13%)
  Limb injury, number of subjects: 0
  Mass, number of subjects: 0
  Migraine, number of subjects: 1
  Migraine, percent of subjects: (13%)
  Muscle spasms, number of subjects: 0
  Muscular weakness, number of subjects: 0
  Nasopharyngitis, number of subjects: 1
  Nasopharyngitis, percent of subjects: (13%)
  Nausea, number of subjects: 1
  Nausea, percent of subjects: (13%)
  Number of subjects experiencing any adverse event: 8
  Palpitations, number of subjects: 1
  Palpitations, percent of subjects: (13%)
  Procedural pain, number of subjects: 1
  Procedural pain, percent of subjects: (13%)
  Rash, number of subjects: 1
  Rash, percent of subjects: (13%)
  Sensation of heaviness, number of subjects: 1
  Sensation of heaviness, percent of subjects: (13%)
  Sleep disorder, number of subjects: 1
  Sleep disorder, percent of subjects: (13%)
  Syncope vasovagal, number of subjects: 0
  Tenderness, number of subjects: 0
  Thermal burn, number of subjects: 0
  Urine output increased, number of subjects: 1
  Urine output increased, percent of subjects: (13%)
  Vomiting, number of subjects: 1
  Vomiting, percent of subjects: (13%)
[1]; day 14 (drug stopped)
  serum creatinine of one subject: 151 µmol/L
[1]; day 21 (normalization, drug restarted)
  serum creatinine of one subject: 126 µmol/L
[1]; day 28 (relapse)
  serum creatinine of one subject: 154 µmol/L
[1]; end of study follow up visit
  serum creatinine of one subject: 116 µmol/L
[1]; 2.0 g/day (n = 9)
  Abdominal distension, number of subjects: 0
  Abdominal pain lower, number of subjects: 0
  Any adverse event, percent of subjects: (100%)
  Application site haematoma, number of subjects: 1
  Application site haematoma, percent of subjects: (11%)
  Arthralgia, number of subjects: 0
  Back pain, number of subjects: 0
  Blood creatinine increased, number of subjects: 0
  Constipation, number of subjects: 1
  Constipation, percent of subjects: (11%)
  Cough, number of subjects: 1
  Cough, percent of subjects: (11%)
  Decreased Appetite, number of subjects: 0
  Diarrhoea, number of subjects: 2
  Diarrhoea, percent of subjects: (22%)
  Dizziness, number of subjects: 1
  Dizziness, percent of subjects: (11%)
  Dry eye, number of subjects: 0
  Dysphonia, number of subjects: 1
  Dysphonia, percent of subjects: (11%)
  Epistaxis, number of subjects: 0
  Erythema, number of subjects: 0
  Eye pain, number of subjects: 0
  Fall, number of subjects: 0
  Fatigue, number of subjects: 0
  Headache, number of subjects: 1
  Headache, percent of subjects: (11%)
  Insomnia, number of subjects: 0
  Joint stiffness, number of subjects: 0
  Lethargy, number of subjects: 0
  Limb injury, number of subjects: 1
  Limb injury, percent of subjects: (11%)
  Mass, number of subjects: 0
  Migraine, number of subjects: 0
  Muscle spasms, number of subjects: 0
  Muscular weakness, number of subjects: 0
  Nasopharyngitis, number of subjects: 4
  Nasopharyngitis, percent of subjects: (44%)
  Nausea, number of subjects: 0
  Number of subjects experiencing any adverse event: 9
  Palpitations, number of subjects: 0
  Procedural pain, number of subjects: 0
  Rash, number of subjects: 0
  Sensation of heaviness, number of subjects: 0
  Sleep disorder, number of subjects: 0
  Syncope vasovagal, number of subjects: 1
  Syncope vasovagal, percent of subjects: (11%)
  Tenderness, number of subjects: 0
  Thermal burn, number of subjects: 1
  Thermal burn, percent of subjects: (11%)
  Urine output increased, number of subjects: 0
  Vomiting, number of subjects: 0
[1]; [2]
  dose-limiting toxicities: no dose-limiting toxicities
  serious adverse events: no serious adverse events
CYP3A4
  induction of CYP3A4: not a significant inducer
